Where a SMILES comes first, the peptide text is derived from it. The star is where a group is joined. DOTA = O=C(O)CN1CCN(CC(=O)O)CCN(CC(=O)*)CCN(CC(=O)O)CC1
Tests used:
[1] = PET/CT imaging in CAPAN-2-tumour-bearing mice; type: in vivo; details: female, athymic nude-Foxn1nu (nu/nu), mouse, iv, total radioactivity, CAPAN-2 xenograft mice, i.v., PET 90 min after injection, mean ± SD (n=33 for -1, n=17 for -2), read-out: Tumour uptake quantified by PET imaging
Method: For the cell line-derived model, 1 × 10^6 CAPAN-2 cells were injected subcutaneously into the flanks of female athymic nude-Foxn1nu (nu/nu) mice (Harlan Laboratories). Tumours were allowed to develop until palpable prior to PET imaging. Mice were sacrificed when the tumour mass reached a maximum size of 1500 mm^3 or tumour ulceration was observed, or mice were symptomatic from their tumours which included signs of lethargy, poor grooming, weight loss, and hunching.
PET imaging was performed with a small-animal Argus PET-CT scanner (SEDECAL, Madrid, Spain). PET studies (energy window 250–700 KeV and 30 min static acquisition) and CT studies (voltage 45 kV, current 150 μA, 8 shots, 360 projections, and standard resolution) were performed either at 90 min or at various time points after injection of ^68Ga-DOTA-AF7p or ^89Zr-DFO-LEM2/15, respectively, in mice anesthetized by inhalation of 2–2.5% isoflurane. PET image reconstruction was accomplished using a 2D-OSEM (ordered subset expectation maximization) algorithm (16 subsets and two iterations), with random and scatter correction. […] Tumour-to-blood and tumour-to-background ratios were calculated from %ID/g values in ROIs for the whole tumour, heart (a measure of the blood pool), and brain (for background measurements). Images were analysed with the image analysis software ITK-SNAP [26] […]

[2] = system: subcutaneous PDAC patient-derived xenograft; assay: PET/CT imaging in heterotopic (subcutaneous) patient-derived xenograft mice; type: in vivo, mouse; details: heterotopic PDX mice
From the text: (§1) PDX models used in this work were established as described by Rubio-Viqueira et al. and Hidalgo et al. using four- to six-week-old female athymic nude-Foxn1nu (nu/nu) mice, purchased from Envigo (Barcelona, Spain). Animals were maintained at the Spanish National Cancer Research Centre (CNIO) Animal Facility (awarded with the AAALAC accreditation). Orthotopic tumours were monitored by ultrasonography, and those implanted into the flanks were allowed to grow to approximately 40 to 200 mm^3 prior to perform PET imaging studies.
(§2) PET imaging was performed with a small-animal Argus PET-CT scanner (SEDECAL, Madrid, Spain). PET studies (energy window 250–700 KeV and 30 min static acquisition) and CT studies (voltage 45 kV, current 150 μA, 8 shots, 360 projections, and standard resolution) were performed either at 90 min or at various time points after injection of ^68Ga-DOTA-AF7p or ^89Zr-DFO-LEM2/15, respectively, in mice anesthetized by inhalation of 2–2.5% isoflurane. PET image reconstruction was accomplished using a 2D-OSEM (ordered subset expectation maximization) algorithm (16 subsets and two iterations), with random and scatter correction. A calibration factor predetermined by scanning a cylindrical phantom containing a known activity of ^68Ga or ^89Zr was used to convert counts per pixel/sec to kBq/cm^3. Manually drawn regions of interest (ROIs) selected from PET images using CT anatomical guidelines were used to determine the mean radiotracer accumulation in units of %ID/g tissue (decay corrected to the time of injection) by dividing the obtained average tracer concentration (kBq/cm^3) in the region by the total ID (injected dose, expressed in kBq). Tumour-to-blood and tumour-to-background ratios were calculated from %ID/g values in ROIs for the whole tumour, heart (a measure of the blood pool), and brain (for background measurements). Images were analysed with the image analysis software ITK-SNAP [26] (http://www.itksnap.org).

[3] = as above; type: in vivo, mouse; details: female, athymic nude-Foxn1nu (nu/nu), mouse, total radioactivity, heterotopic PDX mice
From the text: as §1, §2

tissue uptake at 1.5 h [1] | Route of excretion (signals in kidneys and bladder on PET) [2] | tissue uptake at 1.5 h ([3]; kidneys, PET, n=17, read-out: Mean accumulation in kidneys) | tissue uptake at 1.5 h ([3]; liver, PET, n=16, read-out: Mean accumulation in liver) | tissue uptake at 1.5 h ([3]; tumour, PET 90 min after injection, start of the PET study, n=8, read-out: Tumour uptake quantified by PET imaging) | tissue uptake at 1.5 h ([3]; tumour, PET 90 min after injection, study day 5, n=8, read-out: Tumour uptake quantified by PET imaging) | tissue uptake at 1.5 h ([3]; tumour, PET 90 min after injection, study day 8, n=6, read-out: Tumour uptake quantified by PET imaging) | tissue uptake at 1.5 h ([3]; tumour, PET 90 min after injection, study day 14, n=10, read-out: Tumour uptake quantified by PET imaging) | SMILES
0.171 ± 0.095 %ID/g | mainly excreted through the renal route | 4.03 ± 1.73 %ID/g | 0.8 ± 0.6 %ID/g | 0.23 ± 0.085 %ID/g | 0.227 ± 0.142 %ID/g | 0.26 ± 0.047 %ID/g | 0.185 ± 0.082 %ID/g | CC(C)C[C@H](NC(=O)[C@H](Cc1ccccc1)NC(=O)[C@@H](NC(=O)[C@H](CCCCN)NC(=O)[C@@H](NC(=O)[C@H](CC(N)=O)NC(=O)[C@H](Cc1c[nH]cn1)NC(=O)[C@H](CC(C)C)NC(=O)[C@H](Cc1c[nH]cn1)NC(=O)[C@H](CCCCN)NC(=O)[C@H](Cc1c[nH]c2ccccc12)NC(=O)[C@H](Cc1c[nH]cn1)NC(=O)CN1CCN(CC(=O)O)CCN(CC(=O)O)CCN(CC(=O)O)CC1)[C@@H](C)O)[C@@H](C)O)C(=O)O [^68Ga-DOTA-AF7p-1, metal not drawn] ({DOTA}-HWKHLHNTKTFL-OH)
0.216 ± 0.095 %ID/g | – | – | – | – | – | – | – | CC(C)C[C@H](NC(=O)[C@H](Cc1ccccc1)NC(=O)[C@@H](NC(=O)[C@H](CCCCN)NC(=O)[C@@H](NC(=O)[C@H](CC(N)=O)NC(=O)[C@H](Cc1c[nH]cn1)NC(=O)[C@H](CC(C)C)NC(=O)[C@H](Cc1c[nH]cn1)NC(=O)[C@H](CCCCNC(=O)CN1CCN(CC(=O)O)CCN(CC(=O)O)CCN(CC(=O)O)CC1)NC(=O)[C@H](Cc1c[nH]c2ccccc12)NC(=O)[C@@H](N)Cc1c[nH]cn1)[C@@H](C)O)[C@@H](C)O)C(=O)O [^68Ga-DOTA-AF7p-2, metal not drawn] (H-HWK(DOTA)HLHNTKTFL-OH)

From PMC6129362, “MT1-MMP as a PET Imaging Biomarker for Pancreas Cancer Management” (Contrast Media & Molecular Imaging, 2018)
